This test concerns rabbits. In words: Tissue hemoglobin and cytochrome c oxidase in rabbit muscle and brain (DOS, continuous wave near-infrared spectroscopy). It is filed as in vivo. As to the method:
NO-Cbi at a dose of 5 μg/kg/min (4.8 nmol/kg/min) was given to a 4 kg rabbit starting at 2 minutes and ending at 11.5 minutes; the drug's effect was monitored by diffuse optical spectroscopy (DOS) over the left thigh muscle. […] All of these changes reversed within 1 minute of stopping the NO-Cbi with a small overshoot in both the oxy- and deoxyhemoglobin concentrations.
NO-Cbi was given to a 3.9 kg rabbit at doses of 6.87, 3.44, and 1.72 μg/kg/min (6.6, 3.3, 1.7 nmol/kg/min), as indicated in the brown rectangular boxes corresponding to drug infusion rates of 1.8, 0.9, and 0.45 ml/min, respectively. Infusion times were for 10 minutes, followed by a 20 minute wash-out period. Oxy-, deoxy- and total hemoglobin concentrations were monitored in the brain by continuous wave near-infrared spectroscopy; changes in hemoglobin concentration are shown as relative units, because continuous wave spectroscopy is not quantitative due to light loss from scattering. As occurred in peripheral muscle (FIG. 7), NO-Cbi caused the deoxyhemoglobin concentration to increase and the oxyhemoglobin concentration to decrease. […] The gradual decrease in total hemoglobin over time was from blood sampling for blood gases and blood hemoglobin content. A dose response effect of NO-Cbi on all three hemoglobin concentration changes can be seen.
Continuous intravenous NO-Cbi infusions were performed in anesthetized rabbits with systemic hemodynamic monitoring, continuous gas exchange analysis, and diffuse optical spectroscopy (DOS) and continuous wave near-infrared spectroscopy monitoring. DOS monitoring was over muscle as a representation of peripheral tissue, and continuous wave spectroscopy was over muscle and brain region. Six animals have been studied to date, varying NO-Cbi infusion rates in each animal between 1.7 and 6.9 μg/kg/min (1.6 and 6.7 nmol/kg/min).

Molecules are shown by their SMILES.

For the molecule `CC1=C2[N+]3=C(C=C4[N+]5=C(C(C)=C6[N]7C(C(CC(N)=O)C6(C)CCC(=O)NCC(C)O)C6(C)[N+](=C1C(CCC(N)=O)C6(C)CC(N)=O)[Co-3]753[N]=O)C(CCC(N)=O)C4(C)C)C(CCC(N)=O)C2(C)CC(N)=O` (stereo not shown) [NO-Cbi, nitrosyl cobinamide], the “time for changes to reverse after stopping NO-Cbi” value (5 μg/kg/min, thigh muscle, DOS) is ≤ 1 min. The total tissue hemoglobin entry (brain) is on record as “increased slightly in brain”. For the same molecule, where the note is “brain and muscle”, the deoxyhemoglobin concentrations result is given as “increased deoxyhemoglobin concentrations”, the hemoglobin oxygen saturation result is given as “decrease in hemoglobin oxygen saturation” and the tissue oxyhemoglobin concentrations result was “decreased tissue oxyhemoglobin concentrations”. Under “muscle”, the cytochrome redox state entry is reported as “decreasing the cytochrome redox state” and the total tissue hemoglobin result was “decreased slightly in muscle”.

The record behind these values is patent publication US8222242B2, “Nitric oxide releasing compounds” (The Regents of the University of California, priority 2008, dated 2012).
